The experiment relates to Caenorhabditis elegans. Kind of experiment: C. elegans L1 nematicidal dose response in 96-well plates, 5 day visual score (Example 2; same procedure for Example 7, Table 3). Format: in vivo. Set-up: key to 5 Day Visual Score V1 / 5 Day Visual Score V2 / 5 Day Visual Score V3 / 5 Day Visual Score V4 / 5 Day Visual Score V6 / 5 Day Visual Score V5 / Initial HTS Run Visual Score / Follow-up HTS Run Visual Score: Dead: only stiff L1s (no movement); Dead (L4): worms are dead, but at a later larval stage; majority of worms are L1 (based on size) worms move when plate is tapped; majority of worms are L2 (based on size); majority of worms are L3 (based on size); majority of worms are L4 (based on size); AD: majority of worms are adult; #AD: 5 adult worms or less; B!: sterile (0-25 progeny); B: low broodsize (25-100 progeny); ˜B: moderate broodsize (100-250 progeny); <: reduced broodsize (250-500 progeny); OK: no effect (˜1000+ progeny). Summed up:
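Scoring was by eye at 100× on day 5, after incubation at 20° C, of 20 C. elegans L1s per well fed 1% E. coli HB101 in NGM. Compound columns V1–V6 spanned 70 μM to 0.3 μM in 3-fold steps, with 1.4% DMSO in the top well and as control.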

[1] abbreviates: dose response, dilution V2, day 5.
Where [2] appears, read: dose response, dilution V3, day 5.
The mark [3] stands for this setting: dose response, dilution V4, day 5.
Where [4] appears, read: dose response, dilution V5, day 5.
The mark [5] stands for this setting: dose response, dilution V6, day 5.
The mark [6] stands for this setting: dose response, dilution V2, 5 day.
Where [7] appears, read: dose response, dilution V4, 5 day.
Where [8] appears, read: dose response, dilution V5, 5 day.
Setting [9] is: dose response, dilution V6, 5 day.
Setting [10] is: dose response, dilution V1, day 5.

A value given as a limit tells only on which side of the number the result lay.

Turning to `CCOC(=O)CCN(Cc1ccccc1)c1nc(NCCc2ccc(F)cc2)ns1` [compound 242], the “Follow-up HTS Run % Run” value is 87%, the “Follow-up HTS Run mOD” value is 140 mOD, the “Initial HTS Run % Run” value was 106% and the “Initial HTS Run Visual Score” value is given as “Dead (L3?)”. For the same compound, the “Initial HTS Run mOD” value stood at 117 mOD. In addition, the “5 Day Visual Score V2” value under setting [1] is listed as “B (low broodsize (25-100 progeny))”. Further, the “5 Day Visual Score V3” value under setting [2] is “OK (no effect (˜1000+ progeny))”. For the same compound, under setting [3], the “5 Day Visual Score V4” value was “OK (no effect (˜1000+ progeny))”. Moreover, the “5 Day Visual Score V5” value under setting [4] is listed as “OK (no effect (˜1000+ progeny))”. Besides, the “5 Day Visual Score V6” value under setting [5] is recorded as “OK (no effect (˜1000+ progeny))”.
As to `CCOC(=O)CCN(Cc1ccccc1)c1nc(NCc2ccc(C(F)(F)F)cc2)ns1` [compound 313], the “Follow-up HTS Run % Run” value was 106%, the “Follow-up HTS Run mOD” value is reported as 170 mOD, the “Initial HTS Run % Run” value was 97% and the “Initial HTS Run Visual Score” value is listed as “L2 - (Dead L3)”. Moreover, the “Initial HTS Run mOD” value came out at 107 mOD. Under “dose response, dilution V1, 5 day”, the “5 Day Visual Score V1” value is recorded as “Dead(L2/L3)”. The “5 Day Visual Score V2” value under setting [6] is “Dead(L3)”. The “5 Day Visual Score V4” value under setting [7] is on record as “< (reduced broodsize (250-500 progeny))”. For the same compound, under setting [8], the “5 Day Visual Score V5” value is “OK (no effect (˜1000+ progeny))”. The “5 Day Visual Score V6” value under setting [9] was “OK (no effect (˜1000+ progeny))”.
As for `CCCCN(CC)c1nc(NCc2ccc(C(F)(F)F)cc2)ns1` [compound 319], the “Follow-up HTS Run % Run” value is on record as 127%, the “Follow-up HTS Run Visual Score” value is recorded as “L2”, the “Follow-up HTS Run mOD” value was found to be 205 mOD and the “Initial HTS Run % Run” value is 121%. In addition, the “Initial HTS Run Visual Score” value was “L2” and the “Initial HTS Run mOD” value was determined as 133 mOD. Under setting [6], the “5 Day Visual Score V2” value was “˜B (moderate broodsize (100-250 progeny))”. In addition, where the note is “dose response, dilution V3, 5 day”, the “5 Day Visual Score V3” value was “OK (no effect (˜1000+ progeny))”. Besides, the “5 Day Visual Score V4” value under setting [7] is “OK (no effect (˜1000+ progeny))”. In addition, the “5 Day Visual Score V5” value under setting [8] is recorded as “OK (no effect (˜1000+ progeny))”. Further, under setting [9], the “5 Day Visual Score V6” value was “OK (no effect (˜1000+ progeny))”.
As for `CCCCN(Cc1ccccc1)c1nc(NCc2ccc(F)cc2F)ns1` [compound 291], the “Follow-up HTS Run % Run” value is 137%, the “Follow-up HTS Run Visual Score” value is “B! (sterile (0-25 progeny))”, the “Follow-up HTS Run mOD” value came to 220 mOD and the “Initial HTS Run % Run” value turned out to be 136%. The “Initial HTS Run mOD” value is 150 mOD. For the same compound, under setting [10], the “5 Day Visual Score V1” value was “L4#AD/B!”. In addition, the “5 Day Visual Score V2” value under setting [1] is on record as “OK (no effect (˜1000+ progeny))”. For the same compound, the “5 Day Visual Score V3” value under setting [2] was “OK (no effect (˜1000+ progeny))”. For the same compound, the “5 Day Visual Score V4” value under setting [3] is given as “OK (no effect (˜1000+ progeny))”. In addition, the “5 Day Visual Score V5” value under setting [4] is recorded as “OK (no effect (˜1000+ progeny))”. For the same compound, the “5 Day Visual Score V6” value under setting [5] was “OK (no effect (˜1000+ progeny))”.
For the compound `Fc1ccc(N2CCN(c3nc(NCc4c(F)cccc4F)ns3)CC2)cc1` [compound 296], the “Follow-up HTS Run % Run” value came out at 109%, the “Follow-up HTS Run Visual Score” value is “L4”, the “Follow-up HTS Run mOD” value came to 175 mOD and the “Initial HTS Run % Run” value is 96%. In addition, the “Initial HTS Run Visual Score” value is “L4/AD/B!-Few Eggs” and the “Initial HTS Run mOD” value was determined as 106 mOD. Besides, under setting [10], the “5 Day Visual Score V1” value is listed as “Dead”. Moreover, the “5 Day Visual Score V3” value under setting [2] was “B (low broodsize (25-100 progeny))”. In addition, the “5 Day Visual Score V4” value under setting [3] was “OK (no effect (˜1000+ progeny))”. The “5 Day Visual Score V5” value under setting [4] was “OK (no effect (˜1000+ progeny))”. The “5 Day Visual Score V6” value under setting [5] is on record as “< (reduced broodsize (250-500 progeny))”.
For the compound `CCCCCCCCS(=O)(=O)N1CCN(C(=O)C=Cc2cccc(C(F)(F)F)c2)CC1C(=O)NCc1ccc(C(F)(F)F)cc1` (stereo not drawn) [AKC 171], where the note is “0.9 μM, C. elegans L1, scored day 5”, the “5 Day Visual Score V5” value is “< (reduced broodsize (250-500 progeny))”. For the same compound, where the note is “7.8 μM, C. elegans L1, scored day 5”, the “5 Day Visual Score V3” value is listed as “Dead(L4)/#A”. In addition, for the setting “23.3 μM, C. elegans L1, scored day 5”, the “5 Day Visual Score V2” value was “L2”. For the same compound, the “5 Day Visual Score V1” value (70 μM, C. elegans L1, scored day 5) is given as “Dead”.

For the origin of these results see patent US20020002171A1, “Materials and methods for killing nematodes and nematode eggs” (priority 2000, published 2002).
